From patent US4578498A, “Phenylethylene derivatives and their use as drugs” (BASF Aktiengesellschaft, priority 1982, dated 1986)
pIC50: −log10 of the molar value. Read-outs that look alike come from different tables or passages of the source. One block for each molecule: values may come before it.

Assays:
comedos = experiment: Comedolytic activity on tar-induced comedos of rabbit ears; type: in vivo, albino rabbits; conditions: Oryctolagus cuniculus, 336 h, topical, read-out: Comedolytic activity in % (decrease in number of comedos vs control ear)
Description: The development of comedos was induced by one topical application of 0.5 ml per day, onto both ears of albino rabbits, of 5% of tar in Polyan® (ester of lanolin alcohol and linolenic acid, produced by Amerchol Corp., U.S.A.), the application being carried out on 5 successive days per week over a period of two weeks. Thereafter, the test substances in ethanol/propylene glycol (70:30, v/v, 0.5 ml) were applied topically onto the inner skin area of one ear of each rabbit once per day on 5 successive days per week over a period of two weeks. The second ear of each animal served as an untreated control.
After further treatment for 72 hours with the test substance, the rabbits were sacrificed. A skin sample of about 6 cm^2 was taken from each auricle just outside the oratory passage, and this sample was divided into sections of about 1 cm^2. These pieces of skin were immersed for 2 minutes in warm water at 60° C. The epidermis was carefully peeled off using the flat end of a spatula and a small forceps, and was placed, dermal side up, on the slide. After drying in air overnight, the test strips were assessed under a stereomicroscope. […] The comedos were recognizable as discrete, cylindrical to round keratose particles which were of similar appearance and whose size and number were proportional to the activity of the test substance. The comedolytic effect was determined as the decrease in the number of comedos, in %, compared with the control ear (cf. Table 2).

[1] = system: utriculi in the Rhino mouse; experiment: Reduction of the number of utriculi in the Rhino mouse model; type: in vivo, Rhino mice; conditions: for inhibition in vivo at 0.1 % / inhibition in vivo at 0.2 %: read-out: Decrease in % (number of utriculi / cysts)
[2] = system: leukemia cells of patients having promyelocytic leukemia; experiment: Induction of cell differentiation in promyelocytic leukemia cells; type: cell-based, human (patients)
tracheal epithelium = experiment: Elimination of keratinization in tracheal cultures (antitumor action); type: cell-based, hamster; conditions: Mesocricetus auratus, 240 h; for IC50: hamster tracheal culture, 10 days, serum-free, extrapolated from dose-effect curves, read-out: ED50 (molar dose which suppresses keratinization in half the cultures) (converted)
Text: The test model is used to determine the intrinsic property of the novel compounds of increasing the differentiation of epithelial cells. The great significance of this screening method in predicting the potential use of a new retinoid for the prevention of tumors in epithelial tissue is generally recognized. Moreover, it is known that every in vitro test system has disadvantages in respect of the prediction of in vivo activity. Apart from these basic restrictions, tracheal cell cultures are one of the most useful methods of determining the biological activity of novel retinoids.
The ability of the test substances to eliminate keratinization in a defined in vitro system was determined. Tracheae of hamsters at a very early stage of vitamin A deficiency were used for culture. […] Their average weight was from 47 to 52 g. The tracheal epithelium was in general slightly columnar or pavement-like and had only isolated areas of squamous metaplasia. Each trachea was opened along the membrane-like dorsal wall, from the larynx to the carina, and cultured in a serum-free medium (CMRL-1066 supplemented by 1.0 μg/ml of crystalline bovine insulin, 0.1 μg/ml of hydrocortisone hemisuccinate, 2mM of glutamine, 100 units/ml of penicillin and 100 μg/ml of streptomycin). The cultures were aerated with a mixture of 50% of oxygen, 45% of nitrogen and 5% of carbon dioxide, and the culture dishes were shaken gently to bring the tracheae into contact with the gas and the culture medium. All tracheae were initially kept for 3 days in the culture medium without the addition of retinoid. After this period, some tracheae were removed. […] The remaining tracheae were divided into groups, which were then treated with the following additives:
(a) The test substance dissolved in spectroscopically pure dimethylsulfoxide (the final concentration of dimethylsulfoxide in the culture medium was never greater than 0.1%).
(b) An equivalent amount of dimethylsulfoxide without a further additive.
The nutrient medium was changed three times per week. After culture for 10 days, the remaining tracheae were worked up by being fixed in 10% strength buffered formaldehyde solution and embedded in paraffin. […] Dose-effect curves of the novel compounds were recorded. Table 1 below gives the extrapolated molar doses which suppress keratinization in half the cultures (ED 50%).

[3] = system: white male New Zealand rabbits; conditions: rabbit, in vivo
Description: 5. The toleration of the test substances after topical administration was determined in experiments with 6 white male New Zealand rabbits in each case. In the case of each test animal, an area of about 6 cm^2 on the back was shaved. The test substances were dissolved in ethanol/propylene glycol (70:30, v/v), and 0.2 ml of this solution was applied with an automatic micropipette on 9 successive days by carefully rubbing the solution into a particular point twice daily at 6-hour intervals.
Before each application in the morning, all test areas were assessed subjectively in respect of erythemas and scaling, a numerical scale from 0 to 3 being employed (0=no reaction, 1=mild, 2=moderate and 3=severe). The average erythema formation and scaling gives the relative irritant level of the test substances in comparison with vitamin A acid.

[4] = concentration 0.1%, rabbit ear, two weeks
[5] = concentration 0.1%, Rhino mouse
[6] = concentration 0.2%, Rhino mouse

Structure (SMILES): CCOC(=O)c1ccc(/C=C(\C)c2cc3c(cc2C)C(C)(C)CCC3(C)C)cc1 [Example 1, Ethyl E-4-[2-methyl-2-(1,1,4,4,6-pentamethyl-1,2,3,4-tetrahydronaphth-7-yl)-vinyl]-benzoate]
- inhibition in vivo at 0.1 % (comedos; [4]): 75%
- inhibition in vivo at 0.1 % [1, 5]: 65%

- IC50 (tracheal epithelium): 10 pM
- Erythema [3]: 2.8
- Scaling [3]: 2.7
Structure (SMILES): C/C(=C\c1ccc(C(=O)O)cc1)c1cc2c(cc1C)C(C)(C)CCC2(C)C [Example 2, E-4-[2-methyl-2-(1,1,4,4,6-pentamethyl-1,2,3,4-tetrahydronaphth-7-yl)-vinyl]-benzoic acid]
- induction of cell differentiation to give mature granulocytes [2]: induce cell differentiation to give mature granulocytes
- inhibition in vivo at 0.1 % (comedos; [4]): 73%
- inhibition in vivo at 0.1 % [1, 5]: 68%

- Erythema [3]: 2.0
- Scaling [3]: 1.7
Structure (SMILES): CCc1cc2c(cc1/C(C)=C/c1ccc(C(=O)O)cc1)C(C)(C)CCC2(C)C [Example 5, E4-[2-methyl-2-(1,1,4,4-tetramethyl-6-ethyl-1,2,3,4-tetrahydronaphth-7-yl)-vinyl]-benzoic acid]
- inhibition in vivo at 0.1 % (comedos; [4]): 54%
- inhibition in vivo at 0.1 % [1, 5]: 69%

Structure (SMILES): CCOC(=O)c1ccc(/C=C(\C)c2cc3c(cc2C(C)C)C(C)(C)CCC3(C)C)cc1 [Example 6, Ethyl E4-[2-methyl-2-(1,1,4,4-tetramethyl-6-isopropyl-1,2,3,4-tetrahydronaphth-7-yl)-vinyl]-benzoate]
- inhibition in vivo at 0.1 % (comedos; [4]): 68%
- inhibition in vivo at 0.1 % [1, 5]: 59%

- IC50 (tracheal epithelium): 10 pM
- Erythema [3]: 3.0
- Scaling [3]: 3.0
Structure (SMILES): C/C(=C\c1ccc(C(=O)O)cc1)c1cc2c(cc1C(C)C)C(C)(C)CCC2(C)C [Example 7, E4-[2-methyl-2-(1,1,4,4-tetramethyl-6-isopropyl-1,2,3,4-tetrahydronaphth-7-yl)-vinyl]benzoic acid]
- inhibition in vivo at 0.1 % (comedos; [4]): 59%
- inhibition in vivo at 0.1 % [1, 5]: 62%

- Erythema [3]: 1.4
- Scaling [3]: 1.0
Structure (SMILES): C/C(=C\c1ccc(C(=O)O)cc1)c1cc2c(cc1CC(C)C)C(C)(C)CCC2(C)C [Example 8, E4-[2-methyl-2-(1,1,4,4-tetra-methyl-6-(2-methylpropyl)-1,2,3,4-tetrahydronaphth-7-yl)-vinyl]-benzoic acid]
- inhibition in vivo at 0.1 % (comedos; [4]): 62%
- inhibition in vivo at 0.1 % [1, 5]: 52%

Structure (SMILES): C/C(=C/c1ccc(C(=O)O)cc1)c1cc2c(cc1C)C(C)(C)CCC2(C)C [Example 10, Z4-[2-methyl-2-(1,1,4,4,6-pentamethyl-1,2,3,4-tetrahydronaphth-7-yl)-vinyl]-benzoic acid]
- inhibition in vivo at 0.1 % (comedos; [4]): 31%
- inhibition in vivo at 0.1 % [1, 5]: 49%

Structure (SMILES): CCCc1cc2c(cc1/C(C)=C/c1ccc(C(=O)O)cc1)C(C)(C)CCC2(C)C [Example 11, E4-[2-methyl-2-(1,1,4,4-tetramethyl-6-propyl-1,2,3,4-tetrahydronaphth-7-yl)-vinyl]-benzoic acid]
- inhibition in vivo at 0.1 % (comedos; [4]): 40%
- inhibition in vivo at 0.1 % [1, 5]: 59%

Structure (SMILES): CCCCc1cc2c(cc1/C(C)=C/c1ccc(C(=O)O)cc1)C(C)(C)CCC2(C)C [Example 14, E4-[2-methyl-2-(1,1,4,4-tetramethyl-6-n-butyl-1,2,3,4-tetrahydronaphth-7-yl)-vinyl]-benzoic acid]
- inhibition in vivo at 0.1 % (comedos; [4]): 79%
- inhibition in vivo at 0.1 % [1, 5]: 64%

Structure (SMILES): CCCCCCCCc1cc2c(cc1/C(C)=C/c1ccc(C(=O)O)cc1)C(C)(C)CCC2(C)C [Example 15, E4-[2-methyl-2-(1,1,4,4-tetramethyl-6-n-octyl-1,2,3,4-tetrahydronaphth-7-yl)-vinyl]-benzoic acid]
- inhibition in vivo at 0.1 % (comedos; [4]): 59%
- inhibition in vivo at 0.1 % [1, 5]: 59%

Structure (SMILES): C/C(=C/c1ccc(C(=O)O)cc1)c1cc2c(cc1CC(C)C)C(C)(C)CCC2(C)C [Example 17, Z4-[2-methyl-2-(1,1,4,4-tetramethyl-6-(2-methylpropyl)-1,2,3,4-tetrahydronaphth-7-yl)-vinyl]-benzoic acid]
- inhibition in vivo at 0.2 % (comedos; concentration 0.2%, rabbit ear, two weeks): 56%
- inhibition in vivo at 0.2 % [1, 6]: 62%

Structure (SMILES): C/C(=C\c1ccc(C(=O)O)cc1)c1cc2c(cc1CC(C)C)C(C)(C)C(C)C2(C)C (centres unmarked) [Example 18, E4-[2-methyl-2-(1,1,2,3,3-pentamethyl-5-(2-methylpropyl)-indan-6-yl)-vinyl]-benzoic acid]
- inhibition in vivo at 0.2 % [1, 6]: 42%

Structure (SMILES): CCOC(=O)c1ccc(/C=C(\C)c2cc3c(cc2CC(C)C)C(C)(C)CCC3(C)C)cc1 [Example 19, ethyl E4-[2-methyl-2-(1,1,4,4-tetramethyl-6-(2-methylpropyl)-1,2,3,4-tetrahydronaphth-7-yl)-vinyl]-benzoate]
- inhibition in vivo at 0.1 % [1, 5]: 12%

Structure (SMILES): COC(=O)c1ccc(/C=C(\C)c2cc3c(cc2CC(C)C)C(C)(C)CCC3(C)C)cc1 [Example 20, methyl E4-[2-methyl-2-(1,4,4-tetramethyl-6-(2-methylpropyl)-1,2,3,4-tetrahydronaphth-7-yl)-vinyl]-benzoate]
- inhibition in vivo at 0.1 % [1, 5]: 6%

Structure (SMILES): C/C(=C\c1ccc(C(=O)O)cc1)c1cc2c(cc1CCC(C)C)C(C)(C)CCC2(C)C [Example 23, E4-[2-methyl-2-(1,1,4,4-tetra-methyl-6-(3-methylbutyl)-1,2,3,4-tetrahydronaphth-7-yl)-vinyl]-benzoic acid]
- inhibition in vivo at 0.2 % [1, 6]: 62%

Structure (SMILES): CCCCCCCCc1cc2c(cc1/C(C)=C/c1ccc(C(=O)O)cc1)C(C)(C)C(C)C2(C)C (centres unmarked) [Example 24, E4-[2-methyl-2-(1,1,2,3,3-pentamethyl-5-n-octyl-indan-6-yl)-vinyl]-benzoic acid]
- Decrease in % (number of utriculi / cysts) [1, 6]: 42%

Structure (SMILES): C/C(=C\c1ccc(C(=O)O)cc1)c1cc2c(cc1CCC(C)C)C(C)(C)C(C)C2(C)C (centres unmarked) [Example 25, E4-[2-methyl-2-(1,1,2,3,3-pentamethyl-5-(3-methylbutyl)-indan-6-yl)-vinyl]-benzoic acid]
- inhibition in vivo at 0.2 % [1, 6]: 60%

- IC50 (tracheal epithelium): 3 pM
Structure (SMILES): C/C(=C\c1ccc(C(=O)Nc2ccc(O)cc2)cc1)c1ccc2c(c1)C(C)(C)CCC2(C)C [Example 31, E-4-[2-methyl-2-(1,1,4,4-tetramethyl-1,2,3,4-tetrahydronaphth-7-yl)-vinyl]-benzoic acid 4-hydroxyanilide]

- IC50 (tracheal epithelium): 1 pM
Structure (SMILES): C/C(=C\c1ccc(C(=O)Nc2ccc(O)cc2)cc1)c1ccc2c(c1)C(C)(C)C(C)C2(C)C (centres unmarked) [Example 32, E-4-[2-methyl-2-(1,1,2,3,3-pentamethylindan-6-yl)-vinyl]-benzoic acid 4-ydroxyanilide]

- IC50 (tracheal epithelium): 1 pM
Structure (SMILES): C/C(=C\c1ccc(C(=O)Nc2nnn[nH]2)cc1)c1ccc2c(c1)C(C)(C)C(C)C2(C)C (centres unmarked) [Example 40, E-4-[2-methyl-2-(1,1,2,3,3,- pentamethylindan-6-yl)-vinyl]-N(tetrazol-5-yl)-benzamide]

Structure (SMILES): CC1=C(/C=C/C(C)=C/C=C/C(C)=C/C(=O)O)C(C)(C)CCC1 [Vitamin A acid, reference compound]
- pIC50 (tracheal epithelium; read-out: ED50 (molar dose which suppresses keratinization in half the cultures)): 11.00
- inhibition in vivo at 0.1 % (comedos): 67%
- Erythema [3]: 3.0
- Scaling [3]: 3.0
- inhibition in vivo at 0.1 % ([1]; Mus musculus): 60%
